Measured values reported in patent US10450278B2, “Substituted 2-thioxo-imidazolidin-4-ones and spiro analogues thereof, active anticancer ingredient, pharmaceutical composition, medicinal preparation, method for treating prostate cancer” (R-Pharm Overseas Inc., priority 2014, dated 2019).

Molecular target: T1, androgen receptors (Homo sapiens, UniProt P10275, T878A)
T1 sequence (P10275 1-920 T878A): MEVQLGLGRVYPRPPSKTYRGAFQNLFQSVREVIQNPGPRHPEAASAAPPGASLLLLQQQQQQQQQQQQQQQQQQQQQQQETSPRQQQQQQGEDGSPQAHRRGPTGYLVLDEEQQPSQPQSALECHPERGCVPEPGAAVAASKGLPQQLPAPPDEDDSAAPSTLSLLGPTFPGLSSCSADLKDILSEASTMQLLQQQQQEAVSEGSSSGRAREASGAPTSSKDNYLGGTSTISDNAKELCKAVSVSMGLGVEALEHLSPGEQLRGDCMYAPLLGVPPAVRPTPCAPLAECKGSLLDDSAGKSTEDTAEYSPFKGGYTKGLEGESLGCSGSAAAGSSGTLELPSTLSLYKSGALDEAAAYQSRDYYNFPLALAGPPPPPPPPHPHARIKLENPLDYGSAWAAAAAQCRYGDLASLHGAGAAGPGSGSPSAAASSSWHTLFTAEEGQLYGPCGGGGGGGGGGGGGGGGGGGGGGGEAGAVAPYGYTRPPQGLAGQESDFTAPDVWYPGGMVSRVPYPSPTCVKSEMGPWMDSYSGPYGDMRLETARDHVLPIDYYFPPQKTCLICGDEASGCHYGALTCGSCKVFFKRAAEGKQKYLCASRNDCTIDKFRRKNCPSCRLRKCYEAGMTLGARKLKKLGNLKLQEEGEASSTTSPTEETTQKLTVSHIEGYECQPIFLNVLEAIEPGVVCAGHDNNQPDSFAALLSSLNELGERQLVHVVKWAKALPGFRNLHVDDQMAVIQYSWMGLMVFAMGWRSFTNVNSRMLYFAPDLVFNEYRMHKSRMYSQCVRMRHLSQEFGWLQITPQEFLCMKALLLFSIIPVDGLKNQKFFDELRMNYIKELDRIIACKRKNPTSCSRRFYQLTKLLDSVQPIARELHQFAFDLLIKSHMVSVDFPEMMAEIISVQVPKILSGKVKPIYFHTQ
Assay: cell-based
Method: Determination of antagonistic activity of the new compounds of general formula 1 and their analogues with respect to androgen receptors. The ability of the new compounds of general formula 1 and their analogues block androgen receptors is determined by their effectiveness ingbirovaniya sitmulirovannoy dihydrotestosterone expression of prostate-specific antigen (PSA) in the human prostate cancerous cells, LNCap, bank obtained from the American Tissue Culture (ATCC, USA). These cells are sensitive to 5-α-dihydrotestosterone (DHT) and produce cancerous marker (PSA) in its presence. […] Before experiments, the cells were washed and suspended in the same medium, where, however, calf serum was replaced with serum-treated to remove traces of charcoal hormones. Cells were dispensed at 100 1 (10 000 cells) in cell 96 lunochnoyh dies and left for 4 days in an incubator at […] (100% humidity) in an atmosphere of 95% air/5% CO2. […] Cells were allowed to stand for further 5 days under the same incubation conditions. Then nadkletochnoy environmental samples were taken for analysis on the content of the PSA. The analysis was performed according to the protocol recommended by the kit manufacturer to determine the PSA (Alpha Diagnostic International, USA). After wetting holes on the bottom affixed containing antibodies against PSA, they added 25 ul of samples and then 100 µL of antibodies as anti-PSA, which konyugtrovana horseradish peroxidase. After a 30 minute incubation at room temperature, the wells were removed, the wells were washed several times and poured into the wells, 100 ul of a chromogenic peroxidase substrate. Plates were incubated for 15 minutes at room temperature, the wells were added 50 mcl of stop solution and the intensity of color which developed was measured by absorbance at 450 nm. The intensity of the absorption is proportional to the concentration of PSA in the sample. […] 1.

| SMILES | IC50 [nM] | Ki [nM] |
| --- | --- | --- |
| CNC(=O)c1ccc(N2C(=S)N(c3ccc(C#N)c(C(F)(F)F)c3)C(=O)[C@@]2(C)COC)cc1F [II] | 145 | 34.9 |
| CNC(=O)c1ccc(N2C(=S)N(c3ccc(C#N)c(C(F)(F)F)c3)C(=O)[C@]23CCOC3)cc1F [IV] | 83.5 | 20.1 |
